Test results taken from the supplement of paper PMC8149375.

How the values were obtained:
Settings in all cases: treatment: drug + dasatinib (fixed dose, not stated); 5 days
786-O [1] = assay: AUC of dose-response viability curve, drug + dasatinib, normalised to DMSO (arbitrary (AUC of normalised viability)); higher = less growth inhibition
Protocol: (§1)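 Primary HTS combination arm: 8 RCC cell lines treated with 8 doses (up to 10 uM) of each library drug plus a fixed dose of dasatinib (dose not stated) for 5 days; viability read by CellTiter-Glo and normalised to DMSO. GI50 was fitted with XLfit, AUC is the area under the dose-response curve, and minimum viability is the lowest fraction of DMSO viability across doses.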

SN12C [2] = assay: as above
Protocol: as §1

769-P [3] = assay: as above
Protocol: as §1

TK-10 [4] = assay: as above
Protocol: as §1

A498 [5] = assay: as above
Protocol: as §1

CAKI-1 [6] = assay: as above
Protocol: as §1

ACHN [7] = assay: as above
Protocol: as §1

UO-31 [8] = assay: as above
Protocol: as §1

786-O [9] = assay: GI50 of drug in presence of dasatinib; higher = less potent
Protocol: as §1

SN12C [10] = assay: as above
Protocol: as §1

769-P [11] = assay: as above
Protocol: as §1

TK-10 [12] = assay: as above
Protocol: as §1

A498 [13] = assay: as above
Protocol: as §1

CAKI-1 [14] = assay: as above
Protocol: as §1

ACHN [15] = assay: as above
Protocol: as §1

UO-31 [16] = assay: as above
Protocol: as §1

786-O [17] = assay: minimum viability across doses, drug + dasatinib, relative to DMSO (fraction); higher = less growth inhibition
Protocol: as §1

SN12C [18] = assay: as above
Protocol: as §1

769-P [19] = assay: as above
Protocol: as §1

TK-10 [20] = assay: as above
Protocol: as §1

A498 [21] = assay: as above
Protocol: as §1

CAKI-1 [22] = assay: as above
Protocol: as §1

ACHN [23] = assay: as above
Protocol: as §1

UO-31 [24] = assay: as above
Protocol: as §1

| SMILES | AUC of dose-response viability curve (786-O [1]) | AUC of dose-response viability curve (SN12C [2]) | AUC of dose-response viability curve (769-P [3]) | AUC of dose-response viability curve (TK-10 [4]) | AUC of dose-response viability curve (A498 [5]) | AUC of dose-response viability curve (CAKI-1 [6]) | AUC of dose-response viability curve (ACHN [7]) | AUC of dose-response viability curve (UO-31 [8]) | GI50 of drug (786-O [9]) | GI50 of drug (SN12C [10]) | GI50 of drug (769-P [11]) | GI50 of drug (TK-10 [12]) | GI50 of drug (A498 [13]) | GI50 of drug (CAKI-1 [14]) | GI50 of drug (ACHN [15]) | GI50 of drug (UO-31 [16]) | minimum viability across doses (786-O [17]) | minimum viability across doses (SN12C [18]) | minimum viability across doses (769-P [19]) | minimum viability across doses (TK-10 [20]) | minimum viability across doses (A498 [21]) | minimum viability across doses (CAKI-1 [22]) | minimum viability across doses (ACHN [23]) | minimum viability across doses (UO-31 [24]) |
| --- | --- | --- | --- | --- | --- | --- | --- | --- | --- | --- | --- | --- | --- | --- | --- | --- | --- | --- | --- | --- | --- | --- | --- | --- |
| CN(C)Cc1cccc(N/C(=C2\C(=O)Nc3cc(C(=O)N(C)C)ccc32)c2ccccc2)c1 + Cc1nc(Nc2ncc(C(=O)Nc3c(C)cccc3Cl)s2)cc(N2CCN(CCO)CC2)n1 [dasatinib] | 2.19 | 2.35 | 2.43 | 2.49 | 3.5 | 2.09 | 1.61 | 3.62 | 3740 nM | 2480 nM | > 10000 nM | 5620 nM | 9880 nM | 1120 nM | 631 nM | 7140 nM | 0.348 | 0.229 | 0.561 | 0.386 | 0.473 | 0.0645 | 0.0657 | 0.0229 |
| Cc1n[nH]c2ccc(-c3cncc(OC[C@@H](N)Cc4ccccc4)c3)cc12 + Cc1nc(Nc2ncc(C(=O)Nc3c(C)cccc3Cl)s2)cc(N2CCN(CCO)CC2)n1 [dasatinib] | 1.77 | 1.9 | 1.98 | 2.16 | 2.92 | 1.57 | 1.42 | 1.97 | 656 nM | 1530 nM | 1050 nM | 1130 nM | 1260 nM | 224 nM | 85.7 nM | 984 nM | 0.0069 | 0.0087 | 0.00989 | 0.166 | 0.012 | 0.0702 | 0.00362 | 0.00975 |
| Cc1ccc(C(=O)Nc2ccc(CN3CCN(C)CC3)c(C(F)(F)F)c2)cc1C#Cc1cnc2cccnn12 + Cc1nc(Nc2ncc(C(=O)Nc3c(C)cccc3Cl)s2)cc(N2CCN(CCO)CC2)n1 [dasatinib] | – | – | – | – | – | – | – | – | 402 nM | 230 nM | 624 nM | 390 nM | 935 nM | 127 nM | 68.8 nM | 311 nM | – | – | – | – | – | – | – | – |
| COc1cc(Nc2c(C#N)cnc3cc(OCCCN4CCN(C)CC4)c(OC)cc23)c(Cl)cc1Cl [Bosutinib (SKI-606)] + Cc1nc(Nc2ncc(C(=O)Nc3c(C)cccc3Cl)s2)cc(N2CCN(CCO)CC2)n1 [dasatinib] | 2.37 | 2.24 | 2.03 | 2.26 | 2.84 | 1.85 | 1.45 | 2.22 | 2190 nM | 1330 nM | 1070 nM | 1020 nM | 3350 nM | 501 nM | 56.8 nM | – | 0.0253 | 0.199 | 0.105 | 0.0934 | 0.294 | 0.0492 | 0.103 | 0.0097 |
| CCOc1cc2ncc(C#N)c(Nc3ccc(OCc4ccccn4)c(Cl)c3)c2cc1NC(=O)/C=C/CN(C)C [Neratinib (HKI-272)] + Cc1nc(Nc2ncc(C(=O)Nc3c(C)cccc3Cl)s2)cc(N2CCN(CCO)CC2)n1 [dasatinib] | 1.88 | 1.74 | 1.59 | 1.57 | 3.02 | 1.44 | 0.82 | 2.08 | 611 nM | 215 nM | 102 nM | 74.2 nM | 6990 nM | 114 nM | 4.66 nM | – | 0.298 | 0.0625 | 0.0611 | 0.228 | 0.51 | 0.0888 | 0.0762 | 0.0167 |
| CCC(=O)N1CCN(c2ccc(-n3c(=O)ccc4cnc5ccc(-c6cnc7ccccc7c6)cc5c43)cc2C(F)(F)F)CC1 [Torin 1] + Cc1nc(Nc2ncc(C(=O)Nc3c(C)cccc3Cl)s2)cc(N2CCN(CCO)CC2)n1 [dasatinib] | 0.988 | 1.16 | 1.06 | 1.13 | 1.53 | 0.983 | 0.722 | 1.5 | 17.4 nM | 26.6 nM | 21.8 nM | – | 73.9 nM | 27.7 nM | 4.88 nM | 77 nM | 0.0106 | 0.0936 | 0.0737 | 0.0693 | 0.025 | 0.0196 | 0.0484 | 0.00689 |
| Nc1ccc(-c2ccc3ncc4ccc(=O)n(-c5cccc(C(F)(F)F)c5)c4c3c2)cn1 [Torin 2] + Cc1nc(Nc2ncc(C(=O)Nc3c(C)cccc3Cl)s2)cc(N2CCN(CCO)CC2)n1 [dasatinib] | 0.422 | 0.777 | 0.828 | 0.828 | 0.961 | 0.756 | 0.382 | 0.727 | < 3 nM | 6.44 nM | 11.2 nM | – | 22.6 nM | 12.3 nM | < 3 nM | 14.9 nM | 0.00374 | 0.0283 | 0.0396 | 0.0129 | 0.0422 | 0.00828 | 0.033 | 0.00805 |
